Results taken from patent US8193225B2, “Isoxazole amides, derivatives and methods of chemical induction of neurogenesis” (priority 2006, dated 2012).
Entries after “also recorded” stand apart in the source; their conditions may differ.

How the values were obtained:
[1] = system: HDAC5; test: protein blotting of phospho-HDAC5, HDAC4 and phospho-CaMKII in HCN cells; assay type: cell-based, rat; conditions: Isx/Isx-9-treated HCNs, 1-2 d
[2] = system: MEF2; test: gel shift assay of MEF2 binding to MEF2 response element of NR1 gene; assay type: cell-based, rat; conditions: versus vehicle-treated cells
Experimental: Protein blotting, immunoprecipitation, and gel shift assay. For protein blotting analysis, whole cell lysates were prepared from HCN cells using RIPA buffer (Tris-HCl, 50 mM, pH 7.4; NP-40, 1%; Na-deoxycholate, 0.25%; NaCl, 150 mM; EDTA, 1 mM; PMSF, 1 mM; aprotinin, leupeptin, pepstatin, 1 mg/ml; Na3VO4, 1 mM; NaF, 1 mM). For nuclear and cytoplasmic extracts, HCNs were lysed in hypotonic buffer (Hepes, 10 mM, pH 8; MgCl2, 1.5 mM; KCl, 10 mM; DTT, 1 mM). Nuclei was then isolated and resuspended in the same buffer with NaCl, 420 mM; EDTA, 0.2 mM; glycerol, 25%; NP-40, 1%; PMSF, 1 mM; aprotinin, leupeptin, pepstatin, 1 mg/ml. Protein concentration in centrifugation-clarified cell lysates were measured by the BCA Protein Assay Kit (Pierce) and equal amounts of protein were separated on a 4-12% SDS-PAGE and transferred to Hybond PVDF (Amersham Biosciences). Protein blots were done using the NuPage gel and transfer system with 4-20% Tris-Bis gels (Invitrogen). […]

## O=C(NC1CC1)c1cc(-c2cccs2)on1 [Isx-9, N-cyclopropyl-5-(thiophen-2-yl)isoxazole-3-carboxamide]
[1]
  HDAC5 phosphorylation / cytoplasmic phospho-HDAC5: Increased HDAC5 phosphorylation over time; also recorded: Accumulation of phospho-HDAC5 in the cytoplasm; also recorded: cytoplasmic enrichment of phospho-HDAC5
[2]
  total MEF2 binding to MEF2 response element within the NR1 gene: similar
